These results are taken from US20080269267A1, “KINASE INHIBITORS USEFUL FOR THE TREATMENT OF MYLEOPROLIFIC DISEASES AND OTHER PROLIFERATIVE DISEASES” (Deciphera Pharmaceuticals, LLC, priority 2007, published 2008).

Experiment [1] deals with T1, c-Kit kinase (SEQ ID NO:9) (Homo sapiens, UniProt P10721).
T1 construct: purchased ProQinase
Briefly: c-Kit kinase assay (pyruvate kinase/lactate dehydrogenase coupled). The settings on record: <2 min preincubation at 22° C., ATP 200 μM; read-out: c-Kit Enzyme Assay, biochemical IC50. The procedure:
C-Kit Kinase (SEQ ID NO:9) Assay
Activity of c-Kit kinase (SEQ ID NO:9) was determined by following the production of ADP from the kinase reaction through coupling with the pyruvate kinase/lactate dehydrogenase system (e.g., Schindler, et al. Science (2000) 289, 1938-1942). In this assay, the oxidation of NADH (thus the decrease at A340 nm) was continuously monitored spectrophometrically. The reaction mixture ([…]) contained c-Kit (cKIT residues T544-V976, from ProQinase, 5.4 nM), polyE4Y (1 mg/ml), MgCl2 (10 mM), pyruvate kinase (4 units), lactate dehydrogenase (0.7 units), phosphoenol pyruvate (1 mM), and NADH (0.28 mM) in 90 mM Tris buffer containing 0.2% octyl-glucoside and 1% DMSO, pH 7.5. Test compounds were incubated with […] (SEQ ID NO:9) and other reaction reagents at 22° C. for <2 min before ATP (200 μM) was added to start the reaction. The absorption at 340 nm was monitored continuously for 0.5 hours at 30° C. on Polarstar Optima plate reader (BMG). The reaction rate was calculated using the 0 to 0.5 h time frame. Percent inhibition was obtained by comparison of reaction rate with that of a control (i.e. with no test compound). IC50 values were calculated from a series of percent inhibition values determined at a range of inhibitor concentrations using software routines as implemented in the GraphPad Prism software package.

Experiment [2] has as its target T2, C-Met kinase (SEQ ID NO:10) (Homo sapiens, UniProt P08581).
T2 construct: purchased Invitrogen PV3143
Briefly: C-Met kinase assay (pyruvate kinase/lactate dehydrogenase coupled). The settings on record: 0.5 h preincubation at 22° C., ATP 100 μM; read-out: c-Met Enzyme Assay, biochemical IC50. On the procedure: C-Met Kinase (SEQ ID NO:10) Assay
Activity of C-Met kinase (SEQ ID NO:10) was determined by following the production of ADP from the kinase reaction through coupling with the pyruvate kinase/lactate dehydrogenase system (e.g., Schindler, et al. Science (2000) 289, 1938-1942). In this assay, the oxidation of NADH (thus the decrease at A340 nm) was continuously monitored spectrophometrically. The reaction mixture (100 μl) contained C-Met (c-Met residues; 956-1390, from Invitrogen, catalogue #PV3143, 6 nM), polyE4Y (1 mg/ml), MgCl2 (10 mM), pyruvate kinase (4 units), lactate dehydrogenase (0.7 units), phosphoenol pyruvate (1 mM), and NADH (0.28 mM) in 90 mM Tris buffer containing 0.25 mM DTT, 0.2% octyl-glucoside and 1% DMSO, pH 7.5. Test compounds were incubated with C-Met (SEQ ID NO:10) and other reaction reagents at 22° C. for 0.5 h before ATP (100 μM) was added to start the reaction. The absorption at 340 n=was monitored continuously for 2 hours at 30° C. on Polarstar Optima plate reader (BMG). The reaction rate was calculated using the 1.0 to 2.0 h time frame. Percent inhibition was obtained by comparison of reaction rate with that of a control (i.e. with no test compound). IC50 values were calculated from a series of percent inhibition values determined at a range of inhibitor concentrations using software routines as implemented in the GraphPad Prism software package.

Another experiment has as its target T3, Abl kinase (SEQ ID NO:1) (Homo sapiens, UniProt P00519).
T3 construct: purchased deCode Genetics
T3 sequence (P00519 with tags, fused parts or gaps): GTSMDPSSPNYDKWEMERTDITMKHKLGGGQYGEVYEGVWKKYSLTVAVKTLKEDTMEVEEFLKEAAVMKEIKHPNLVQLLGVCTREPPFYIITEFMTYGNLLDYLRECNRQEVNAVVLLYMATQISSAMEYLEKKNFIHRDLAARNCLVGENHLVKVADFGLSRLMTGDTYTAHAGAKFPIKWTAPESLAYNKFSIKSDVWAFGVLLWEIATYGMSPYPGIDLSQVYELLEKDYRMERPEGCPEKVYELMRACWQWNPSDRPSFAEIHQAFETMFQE
Put plainly: Abl kinase assay (pyruvate kinase/lactate dehydrogenase coupled, ADP production). The conditions noted are these: 2 h preincubation at 30° C., ATP 500 μM; read-out: Abl Enzyme Assay, biochemical IC50. The procedure:
Abl Kinase (SEQ ID NO:1) Assay
Activity of Abl kinase (SEQ ID NO:1) was determined by following the production of ADP from the kinase reaction through coupling with the pyruvate kinase/lactate dehydrogenase system (e.g., Schindler, et al. Science (2000) 289, 1938-1942). In this assay, the oxidation of NADH (thus the decrease at A340nm) was continuously monitored spectrophometrically. The reaction mixture (100 μl) contained Abl kinase (1 nM. Abl from deCode Genetics), peptide substrate (EAIYAAPFAKKK. 0.2 mM), MgCl2 (10 mM), pyruvate kinase (4 units), lactate dehydrogenase (0.7 units), phosphoenol pyruvate (1 mM), and NADH (0.28 mM) in 90 mM Tris buffer containing 0.2% octyl-glucoside and 3.5% DMSO, pH 7.5. Test compounds were incubated with Abl (SEQ ID NO:1) and other reaction reagents at 30° C. for 2 h before ATP (500 μM) was added to start the reaction. The absorption at 340 nm was monitored continuously for 2 hours at 30° C. on Polarstar Optima plate reader (BMG). The reaction rate was calculated using the 1.0 to 2.0 h time frame. Percent inhibition was obtained by comparison of reaction rate with that of a control (i.e. with no test compound). IC50 values were calculated from a series of percent inhibition values determined at a range of inhibitor concentrations using software routines as implemented in the GraphPad Prism software package.

T2 sequence (P08581 with tags, fused parts or gaps): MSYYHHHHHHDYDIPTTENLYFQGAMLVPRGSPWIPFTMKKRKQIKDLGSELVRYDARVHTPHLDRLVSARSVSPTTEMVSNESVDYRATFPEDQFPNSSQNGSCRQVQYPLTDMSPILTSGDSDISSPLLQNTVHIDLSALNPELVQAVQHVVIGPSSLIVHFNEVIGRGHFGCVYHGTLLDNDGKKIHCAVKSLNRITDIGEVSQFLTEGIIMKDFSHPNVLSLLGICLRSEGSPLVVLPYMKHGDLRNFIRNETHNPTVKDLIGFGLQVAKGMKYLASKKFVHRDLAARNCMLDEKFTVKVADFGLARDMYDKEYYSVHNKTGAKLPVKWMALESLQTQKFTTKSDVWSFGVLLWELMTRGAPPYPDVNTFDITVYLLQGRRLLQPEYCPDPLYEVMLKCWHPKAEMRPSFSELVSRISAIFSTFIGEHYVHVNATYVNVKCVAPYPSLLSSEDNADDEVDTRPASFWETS
T1 sequence (P10721 with tags, fused parts or gaps): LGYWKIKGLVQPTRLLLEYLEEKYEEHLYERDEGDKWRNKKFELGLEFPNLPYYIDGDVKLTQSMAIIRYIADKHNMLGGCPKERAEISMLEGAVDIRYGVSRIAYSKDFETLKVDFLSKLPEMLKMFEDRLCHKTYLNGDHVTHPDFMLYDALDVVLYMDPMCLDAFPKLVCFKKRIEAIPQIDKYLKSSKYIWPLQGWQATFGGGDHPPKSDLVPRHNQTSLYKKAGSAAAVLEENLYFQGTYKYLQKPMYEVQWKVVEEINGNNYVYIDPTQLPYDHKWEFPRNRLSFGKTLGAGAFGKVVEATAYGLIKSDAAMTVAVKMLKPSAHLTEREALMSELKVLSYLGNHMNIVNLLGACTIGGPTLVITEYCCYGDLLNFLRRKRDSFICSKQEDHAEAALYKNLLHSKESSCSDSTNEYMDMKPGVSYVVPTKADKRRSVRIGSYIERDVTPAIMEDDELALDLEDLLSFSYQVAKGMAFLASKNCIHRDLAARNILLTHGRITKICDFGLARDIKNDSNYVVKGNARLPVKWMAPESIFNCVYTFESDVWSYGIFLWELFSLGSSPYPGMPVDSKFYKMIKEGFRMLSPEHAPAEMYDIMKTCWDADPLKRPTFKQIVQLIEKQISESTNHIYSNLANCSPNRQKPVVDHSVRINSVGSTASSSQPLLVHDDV

As a reminder, the IC50 is the concentration that inhibits the measured activity by half. Turning to `CC(C)n1cc(NC(=O)Nc2ccc(Oc3ccnc(-c4cnn(C)c4)c3)cc2F)c(-c2ccccc2)n1` [Example 21, 1-(2-fluoro-4-(2-(1-methyl-1H-pyrazol-4-yl)pyridin-4-yloxy)phenyl)-3-(1-isopropyl-3-phenyl-1H-pyrazol-4-yl)urea], the IC50 in experiment [1] was below 100 nM; in experiment [2] it was below 1000 nM; on Abl kinase (SEQ ID NO:1), below 100 nM.
Regarding `CCc1cc(NC(=O)Nc2ccc(Oc3ccnc(-c4cnn(C)c4)c3)cc2F)n(-c2cccc(C#N)c2)n1` [Example 9, 1-(1-(3-cyanophenyl)-3-ethyl-1H-pyrazol-5-yl)-3-(2-fluoro-4-(2-(1-methyl-1H-pyrazol-4-yl)pyridin-4-yloxy)phenyl)urea], the IC50 in experiment [1] was below 100 nM; in experiment [2] it was below 1000 nM; on Abl kinase (SEQ ID NO:1) it was below 100 nM.
Turning to `CCc1cc(NC(=O)Nc2ccc(Oc3ccnc(-c4cnn(C)c4)c3)cc2F)n(-c2ccc(CO)cc2)n1` [Example 19, 1-(3-ethyl-1-(4-(hydroxymethyl)phenyl)-1H-pyrazol-5-yl)-3-(2-fluoro-4-(2-(1-methyl-1H-pyrazol-4-yl)pyridin-4-yloxy)phenyl)urea], the IC50 in experiment [1] is below 100 nM; in experiment [2], below 1000 nM; on Abl kinase (SEQ ID NO:1), below 100 nM.
As to `CC(C)c1cc(NC(=O)Nc2ccc(Oc3ccnc(-c4cnn(C)c4)c3)cc2F)n(-c2cccc(C#N)c2)n1` [Example 2, 1-(1-(3-cyanophenyl)-3-isopropyl-1H-pyrazol-5-yl)-3-(2-fluoro-4-(2-(1-methyl-1H-pyrazol-4-yl)pyridin-4-yloxy)phenyl)urea], the concentration for half-maximal inhibition (IC50) (in experiment [1]; in experiment [2]; at Abl kinase (SEQ ID NO:1)) was below 100 nM each time.
